From patent publication US20240293351A1, “METHODS OF ADMINISTERING SYNTHETIC TRITERPENOIDS” (REATA PHARMACEUTICALS HOLDINGS, LLC, priority 2020, published 2024)
“Also recorded” adds a separate entry of the source. Where two headings read alike, the source gives them in different places.

Legend:
[1] = Hygroscopicity of RTA 408 solid forms (DVS, TGA-MS); type: physicochemical
HIV = conditions: macrophages; cited from earlier work
[2] = monkey, in vivo; cited from earlier work
[3] = Phase 1 drug-drug interaction study: omaveloxolone alone and with itraconazole in healthy subjects
CYP3A4/5 [4] = conditions: human liver microsomes and recombinantly-expressed CYPs
CYP3A4/5 [5] = experiment: in vitro; conditions: human, human liver microsomes
cerebral granule neurons = conditions: cited from earlier work
[6] = Storage stability of RTA 408 amorphous form under elevated temperature and humidity (PXRD); type: physicochemical; conditions: open at 25° C./62% r.h. and 40° C./75% r.h., closed at 60° C. and 80° C., up to four weeks
Procedure: In addition, the stability of the amorphous form was investigated by storage under elevated temperature and humidity conditions (open at 25° C./62% r.h. and 40° C./75% r.h. and closed at 60° C. and 80° C.). After one week, two weeks, and four weeks, the stored samples were analyzed by PXRD.

[7] = Chemical stability of RTA 408 amorphous form in organic solvents and aqueous media; type: physicochemical; conditions: 1 mg/mL; acetone, EtOAc, MeOH, MeCN, 1% aq. Tween 80, SDS, CTAB; 6 h, 24 h, 2 d, 7 d
Procedure: The chemical stability of the amorphous form was investigated in organic solvents, including acetone, EtOAc, MeOH, and MeCN, as well as different aqueous media (e.g., 1% aq. Tween 80, 1% aq. SDS, 1% aq. CTAB) at a concentration of 1 mg/mL at time points 6 h, 24 h, 2 d, and 7 d.

[8] = cited from earlier work; for Occurrence of Death / Occurrence of ESRD: ITT
[9] = cited from earlier work
[10] = Drug-drug interaction study: bardoxolone methyl alone and with itraconazole in healthy volunteers; conditions: itraconazole alone, 200 mg daily (Period 2)
[11] = 150 mg omaveloxolone alone (Reference), plasma
[12] = 200 mg itraconazole QD + 150 mg omaveloxolone (Test), plasma
[13] = Test vs Reference statistical analysis
[14] = Test: 200 mg itraconazole QD + 150 mg omaveloxolone, n = 13
[15] = omaveloxolone + itraconazole vs omaveloxolone alone
[16] = ASCEND, avosentan 25 mg (N = 455)
[17] = ASCEND, avosentan 50 mg (N = 478)

CC1(C)CC[C@]2(NC(=O)C(C)(F)F)CC[C@]3(C)[C@H](C(=O)C=C4[C@@]5(C)C=C(C#N)C(=O)C(C)(C)[C@@H]5CC[C@]43C)[C@@H]2C1
Hygroscopicity, mass gain ([1]; from 50% r.h. to 85% r.h.): ~0.7 wt.-%

CC1(C)CC[C@]2(C(=O)O)CC[C@]3(C)[C@H](C(=O)C=C4[C@@]5(C)C=C(C#N)C(=O)C(C)(C)[C@@H]5CC[C@]43C)[C@@H]2C1 [CDDO, 2-cyano-3,12-dioxooleane-1,9(11)-dien-28-oic acid]
Replication of HIV (HIV): can inhibit the replication of HIV in macrophages

COC(=O)[C@]12CCC(C)(C)C[C@H]1[C@H]1C(=O)C=C3[C@@]4(C)C=C(C#N)C(=O)C(C)(C)[C@@H]4CC[C@@]3(C)[C@]1(C)CC2 [Form B CDDO-Me]
Oral bioavailability [2]: higher than that of Form A

CC1(C)CC[C@]2(NC(=O)C(C)(F)F)CC[C@]3(C)[C@H](C(=O)C=C4[C@@]5(C)C=C(C#N)C(=O)C(C)(C)[C@@H]5CC[C@]43C)[C@@H]2C1 [Omaveloxolone]
AUC0-t, geometric mean [3, 11]: 1730 ng·h/mL
AUC0-∞, geometric mean [3, 11]: 1730 ng·h/mL
CL/F, geometric mean [3, 11]: 86.7 L/h
Cmax, geometric mean [3, 11]: 43.0 ng/mL
t1/2, geometric mean [3, 11]: 89.8 h
Increase in systemic exposure, AUC0-∞, with itraconazole ([3]; 150 mg, itraconazole 200 mg QD): approximately 4 fold
Increase in systemic exposure, Cmax, with itraconazole ([3]; 150 mg, itraconazole 200 mg QD): ~3 fold
Ratio (90% CI) of geometric LS means, AUC0-∞ (with itraconazole vs alone) ([3]; 150 mg, itraconazole 200 mg QD): 4.12 (3.48, 4.87)
Ratio (90% CI) of geometric LS means, Cmax (with itraconazole vs alone) ([3]; 150 mg, itraconazole 200 mg QD): 2.77 (2.17, 3.54)
AUC0-t, geometric mean [3, 12]: 6340 ng·h/mL
AUC0-∞, geometric mean [3, 12]: 7280 ng·h/mL
CL/F, geometric mean [3, 12]: 20.6 L/h
Cmax, geometric mean [3, 12]: 116 ng/mL
t1/2, geometric mean [3, 12]: 78.1 h
AUC0-∞, GLSM ([3]; Reference: 150 mg omaveloxolone alone, n = 14): 1730 ng·h/mL
Cmax, GLSM ([3]; Reference: 150 mg omaveloxolone alone, n = 15): 43.0 ng/mL
AUC0-∞, Within-subject CV % [3, 13]: 24.4%
Cmax, Within-subject CV % [3, 13]: 36.8%
AUC0-∞, GLSM [3, 14]: 7130 ng·h/mL
Cmax, GLSM [3, 14]: 119 ng/mL
half-life ([3]; both, human, plasma, oral, 150 mg): 89.8 h
Tmax ([3]; both, human, plasma, oral, 150 mg, Median Tmax (min-max), 150 mg single dose, alone): 12 h
Tmax ([3]; both, human, plasma, oral, 150 mg, tmax, median, Reference: 150 mg omaveloxolone alone, n = 15, Wilcoxon signed rank analysis): 8 h
Tmax ([3]; both, human, plasma, oral, Median Tmax (min-max), 150 mg co-administered with 200 mg itraconazole QD): 6 h
Tmax ([3]; both, human, plasma, oral, tmax, median, Test: 200 mg itraconazole QD + 150 mg omaveloxolone, n = 13, Wilcoxon signed rank analysis): 6 h
Within-subject variability of AUC0-∞, geometric CV % ([3]; human, in vivo): 24.4%
Within-subject variability of Cmax, geometric CV % ([3]; human, in vivo): 36.8%
AUC0-∞, Ratio of GLSMs (Test:Reference) [3, 15]: 4.12
Cmax, Ratio of GLSMs (Test:Reference) [3, 15]: 2.77
Subjects reporting TEAEs ([3]; omaveloxolone alone, 15 subjects): 2 subjects
Subjects reporting TEAEs ([3]; omaveloxolone in combination with itraconazole): no subjects reported TEAEs
Clinical laboratory evaluations, vital signs, ECG parameters ([3]; whole study): no clinically significant findings
Deaths or SAEs ([3]; whole study): no deaths or SAEs
Metabolizing enzyme (CYP3A4/5 [4]): metabolized by CYP3A4
Km (CYP3A4/5 [5]): 1.12 µM
Protection from hydrogen peroxide-induced oxidative stress (cerebral granule neurons): significant protection

CC1(C)CC[C@]2(NC(=O)C(C)(F)F)CC[C@]3(C)[C@H](C(=O)C=C4[C@@]5(C)C=C(C#N)C(=O)C(C)(C)[C@@H]5CC[C@]43C)[C@@H]2C1 [RTA 408 amorphous form]
Stability under elevated temperature and humidity conditions [6]: stable for at least four weeks; also recorded: None of the samples differed from the amorphous starting material
Hygroscopicity, Δm ([1]; DVS, 50%→85% r.h.): +0.4%
Chemical stability, decomposition [7]: Decomposition ≥1% was observed only for solutions in MeCN after 7 days and for suspensions in the 1% aqueous Tween 80 medium

COc1ccccc1Oc1c(NS(=O)(=O)c2ccc(C)cn2)nc(-c2ccncc2)nc1OC [avosentan]
Occurrence of Death [8, 16]: 3.6%
Occurrence of ESRD [8, 16]: 4.4%
Occurrence of Death [8, 17]: 4.6%
Occurrence of ESRD [8, 17]: 5.0%
Death ([8]; ASCEND): modest, non-significant increase in death
ESRD events ([8]; ASCEND): small, numerical reduction in ESRD events
Risk of congestive heart failure (CHF) ([8]; human, in vivo): approximate three-fold increase

CCC(C)n1ncn(-c2ccc(N3CCN(c4ccc(OCC5COC(Cn6cncn6)(c6ccc(Cl)cc6Cl)O5)cc4)CC3)cc2)c1=O (stereo not shown) [itraconazole]
Peak plasma level at steady state ([9]; 100 mg once daily): 0.5 µg/mL
Peak plasma level at steady state ([9]; 200 mg once daily): 1.1 µg/mL
Peak plasma level at steady state ([9]; 200 mg twice daily): 2.0 µg/mL
Renal excretion of itraconazole and hydroxy-itraconazole ([9]; in vivo): less than 1 % of an intravenous dose
Time to peak steady state ([9]; repeated administration): about 15 days
Subjects with a TEAE, n (%) [10]: 1 (6.7%)
